Literature values, collected in patent US20090117102A1, “Methods and compositions using CD3 agonists” (priority 2004, published 2009).

Columns and labels:
[1] = system: T cell; details: Van Wauve, J. Immunol. 124 (1980)
[2] = system: T cell; details: Wong Transplantation 50 (1990)

In the case of “OKT3: murine monoclonal antibody specific for the human CD3 antigen, first monoclonal antibody approved by the FDA”, the “T cell mitogen activity” value [1] is given as “potent T cell mitogen” and the “T cell killer activity” value [2] is given as “potent T cell killer”.
